The subject of one data set is wildtype zebrafish. In words: Initial dose-finding study in adult fish, daily oral gavage, survival. It is filed as in vivo. To be noted: daily gavage of quizartinib at 10 mg/kg, enasidenib at 100 mg/kg, 14 days. How it is done:
Drugs at three concentrations (0.01 μM, 0.1 μM and 1 μM) were added to the embryos in E3 medium with (1-phenyl-2-thiourea) PTU at 6 hpf, and the medium was changed every 24 hours. At 4 dpf, embryos were collected and fixed in 4% PFA for SSB staining. […] Adult zebrafish were anesthetized using 0.015% Tricaine. […] Treated zebrafish were then placed into an individual recovery tank with fresh sterile fish water immediately after the gavage procedure. The drug regimen was repeated daily for 14 days. The gavage apparatus was consisted of a 10 μl microliter syringe (Gaoge, Shanghai, China) and a polyethylene tubing (BTPE-50, INTECH, USA), and was adapted from Collymore et al., 2013 and Dang, Michelle, et al., 2016.

Data set [1] has as its system Tg(Runx1:FLT3^ITDIDH2^R172K) and Tg(Runx1:FLT3^ITDIDH2^R140Q) embryos. The data set is described as follows: Drug treatment of double transgenic embryos, SBB staining as surrogate for embryonic myelopoiesis. It is filed as in vivo, zebrafish. Conditions: drugs at 0.01 μM, 0.1 μM and 1 μM from 6 hpf, stained at 4 dpf. Here is the method: (§1) Drugs at three concentrations (0.01 μM, 0.1 μM and 1 μM) were added to the embryos in E3 medium with (1-phenyl-2-thiourea) PTU at 6 hpf, and the medium was changed every 24 hours. At 4 dpf, embryos were collected and fixed in 4% PFA for SSB staining. […] Adult zebrafish were anesthetized using 0.015% Tricaine. […] Treated zebrafish were then placed into an individual recovery tank with fresh sterile fish water immediately after the gavage procedure. The drug regimen was repeated daily for 14 days.

For data set [2], the system named is FLT3^ITD and IDH2 double mutant zebrafish. The data set is described as follows: 14-day oral gavage treatment of adult double transgenic leukemic fish, kidney marrow analysis. Format: in vivo. To be noted: daily oral gavage 14 days, quizartinib 10 mg/kg, enasidenib 100 mg/kg. How it is done: (§2) Zebrafish WKM were harvested from two to twelve months old transgenic or wildtype TU fish. The collected KM was dissociated in 0.9×PBS with 5% fetal bovine serum (FBS) by pipetting and filtered through a 40 μm nylon cell strainer (Corning, NY, USA). The cells were then centrifuged at 500 g for 5 minutes, resuspended, filtered, and washed with 0.9×PBS with 5% (FBS) at least twice. Flow cytometry of the KM was performed using a MoFlo XDP flow cytometer (Beckman coulter). The data was analyzed using FlowJo™ v10.6.1 software. Cytospin preparations were made with 2×10^5 to 3×10^5 cells cytocentrifuged at 400 rpm for 5 minutes onto microscope glass slides (Thermo scientific). The glass slides were dried at room temperature for more than 12 hours, stained with Wright-Giemsa stain, and imaged with Nikon DS-Ri2 digital camera fitted to a Nikon Eclipse Ni-U microscope.
as §1

Data set [3] relates to Tg(Runx1:FLT3^ITDIDH2^R140Q) zebrafish. The data set is described as follows: 14-day oral gavage treatment of adult Tg(Runx1:FLT3^ITDIDH2^R140Q) fish. It is filed as in vivo. Conditions: adult Tg(Runx1:FLT3^ITD IDH2^R140Q) double mutant; treatment with Quizartinib and/or Enasidenib, 14 days. Here is the method:
as §2, §1

Data set [4] concerns Tg(Runx1:FLT3^ITDIDH2^R172K) zebrafish. In words: 14-day oral gavage treatment of adult Tg(Runx1:FLT3^ITDIDH2^R172K) fish. It is filed as in vivo. To be noted: adult Tg(Runx1:FLT3^ITDIDH2^R172K) double mutants; treatment with Quizartinib and/or Enasidenib, 14 days. Here is the method:
as §2, §1

Experimental findings from patent US20250324955A1, “ZEBRAFISH MODEL OF HUMAN ACUTE MYELOID LEUKEMIA AND METHOD OF USE THEREOF” (Versitech Limited, priority 2022, published 2025) are described below.

Structures are written as SMILES.

For `CC(C)(C)c1cc(NC(=O)Nc2ccc(-c3cn4c(n3)sc3cc(OCCN5CCOCC5)ccc34)cc2)no1` [quizartinib, Quizartinib], the fish survival result with wildtype zebrafish is “compatible with normal fish survival”.
Turning to `CC(C)(O)CNc1nc(Nc2ccnc(C(F)(F)F)c2)nc(-c2cccc(C(F)(F)F)n2)n1` [enasidenib, Enasidenib], the “embryonic myelopoiesis (cytochemical staining with SBB)” value in data set [1] was “ameliorated the increase in myelopoiesis”. Further, the fish survival entry in the data set on wildtype zebrafish is “compatible with normal fish survival”. For the same molecule, in data set [2] (alone or combined), the “blast counts in KM” value is “reduced blast counts in KM”; the “erythroid cells in KM / erythropoiesis” value was “significant increase in neutrophils and erythroid”; the “neutrophils in KM” value is recorded as “significant increase in neutrophils”. In data set [2] (monotherapy), the “cellularity in KM” value is recorded as “but not enasidenib monotherapy significantly reduced cellularity”. For the same molecule, in data set [3], the spleen size entry was “no changes were observed in spleen size”. In addition, the spleen size entry in data set [4] is listed as “decreased spleen sizes”.
